Patent US20240251787A1, “AGROCHEMICAL COMPOSITION, AGROCHEMICAL FORMULATION, USE OF A DIOXABICYCLOALKANE DERIVATIVE, AND, METHOD FOR THE TREATMENT AND/OR PREVENTION OF DISEASES OR PESTS IN A PLANT OR PLANT SEED” (Oxiteno S.A. Indústria e Comércio, priority 2021, published 2024)
Where two headings read alike, the source gives them in different places.

Columns and labels:
[1] = Solvency: maximum amount of active ingredient solubilized per liter of solvent; conditions: for Solvency in N-methylpyrrolidone (NMP): solvent N-methylpyrrolidone (NMP); for Solvency in γ-butyrolactone: solvent γ-butyrolactone
Method: The above compositions were prepared at a temperature of about 50° ° C. stirred with a vortex mixer until visual inspection indicated the absence of solids, confirming solubilization of the active ingredient in the solvent.

[2] = Crystallization test of azoxystrobin solution upon dilution in water; format: physicochemical; conditions: azoxystrobin solution (100 g/L) in the solvent diluted 1:20 in water
Excerpt: The active ingredient azoxystrobin was chosen to carry out an additional test of crystallization of the active ingredient upon dilution in water. […] Among the solvents chosen for evaluation are the solvents dihydrolevoglucosenone, γ-butyrolactone, N-methylpyrrolidone, and triacetin.

[3] = tested on: Euphorbia pulcherrima (Euphorbiaceae), Poinsettia
Excerpt: Phytotoxicity data were generated in tests on Poinsettia (red leaves plant), since this leaf is sensitive to damage caused by chemical agents, which makes it possible to verify and compare the tested solvents.

[4] = safety data sheet class; cited from earlier work
[5] = 1-octanol/water; cited from earlier work
[6] = Euphorbia pulcherrima (Poinsettia), in vivo, 24 h

Row | SMILES | Solvency in N-methylpyrrolidone (NMP) [1] [g/L] | Solvency in γ-butyrolactone [1] [g/L] | Observation by dilution [2] | Eye irritation [4] | other results
1 | CS(=O)(=O)c1ccc(C(=O)C2C(=O)CCCC2=O)c([N+](=O)[O-])c1 [Mesotrione] | 400 | 300 |  |  | 
2 | O=C1CCCO1 [γ-butyrolactone] |  |  | Immediate | 1 | Phytotoxicity (damage %) ([3]; damage observed in each Poinsettia leaf after 24 h of exposure): 27%; Aquatic environment tox. [4]: 3; Central nervous system tox. [4]: 3
3 | CN1CCCC1=O [NMP, N-methylpyrrolidone] |  |  | Immediate | 2A | logP [5]: −0.40; Phytotoxicity (damage %) [3, 6]: 42%; Reproductive system tox. [4]: 1B; Respiratory tox. [4]: 3; Skin irritation [4]: 2
4 | CO/C=C(/C(=O)OC)c1ccccc1Oc1cc(Oc2ccccc2C#N)ncn1 [Azoxystrobin] | 900 | 800 |  |  | 
5 | O=C1CCC2COC1O2 (centres unmarked) [dihydrolevoglucosenone, 6,8-dioxabicyclo[3.2.1]octan-4-one] |  |  | Two-phase | 2A | logP [5]: −1.52; Phytotoxicity (damage %) [3, 6]: 6%
6 | OC(Cc1ccccc1Cl)(Cn1nc[nH]c1=S)C1(Cl)CC1 (centres unmarked) [Prothioconazole] | 1100 | 900 |  |  | 
7 | CC(=O)OCC(COC(C)=O)OC(C)=O [Triacetin] |  |  | Two-phase |  | 
